Test results from patent US11098052B2, “4-azapodophylotoxins compounds” (Arizona Board of Regents on behalf of Arizona State …, priority 2016, dated 2021).
In brackets after ≈: the same amount, converted by molar mass. Read-outs that look alike come from different tables or passages of the source.

Legend:
[1] = test system: P388 murine lymphocytic leukemia cell line; experiment: Murine P388 lymphocytic leukemia inhibitory activity; format: cell-based; conditions: Mus musculus
BXPC-3 (pancreas) = experiment: Human cancer cell growth inhibition, sulforhodamine B assay, BXPC-3; format: cell-based; conditions: read-out: Growth Inhibition of Human Cancer Cell Lines (GI50), BXPC-3
Description: (§1) Cancer Cell Line Procedures. The human cancer cell growth inhibition data were determined using the standard sulforhodamine B assay of the US National Cancer Institute as previously described.^35 In short, cells in a 5% fetal bovine serum/RPMI1640 medium were inoculated in 96-well plates and incubated for 24 h. Next, serial dilutions of the samples were added. After 48 h, the plates were fixed with trichloroacetic acid, stained with sulforhodamine B, and read with an automated microplate reader. A growth inhibition of 50% (GI50 or the drug concentration causing a 50% reduction in the net protein increase) was determined from optical density data employing Immunosoft® software.

MCF-7 (breast) = experiment: Human cancer cell growth inhibition, sulforhodamine B assay, MCF-7; format: cell-based; conditions: read-out: Growth Inhibition of Human Cancer Cell Lines (GI50), MCF-7
Description: as §1

SF-268 (CNS) = experiment: Human cancer cell growth inhibition, sulforhodamine B assay, SF-268; format: cell-based; conditions: read-out: Growth Inhibition of Human Cancer Cell Lines (GI50), SF-268
Description: as §1

NCI-H460 (lung) = experiment: Human cancer cell growth inhibition, sulforhodamine B assay, NCI-H460; format: cell-based; conditions: read-out: Growth Inhibition of Human Cancer Cell Lines (GI50), NCI-H460
Description: as §1

KM20L2 (colon) = experiment: Human cancer cell growth inhibition, sulforhodamine B assay, KM20L2; format: cell-based; conditions: read-out: Growth Inhibition of Human Cancer Cell Lines (GI50), KM20L2
Description: as §1

DU-145 (prostate) = experiment: Human cancer cell growth inhibition, sulforhodamine B assay, DU-145; format: cell-based; conditions: read-out: Growth Inhibition of Human Cancer Cell Lines (GI50), DU-145
Description: as §1

[2] = test system: P388 murine lymphocytic leukemia cell line; conditions: footnote c: See Ref 25; cited from earlier work
[3] = P388, read-out: Murine P388 Lymphocytic Leukemia Inhibitory Activity (ED50)
[4] = P388 cell line, read-out: Murine P388 Lymphocytic Leukemia Inhibitory Activity (ED50)
[5] = BXPC-3 pancreas, 48 h, sulforhodamine B
[6] = MCF7, MCF-7 breast, 48 h, sulforhodamine B
[7] = SF-268 CNS, 48 h, sulforhodamine B
[8] = NCI-H460 lung, 48 h, sulforhodamine B
[9] = KM-20L2, KM20L2 colon, 48 h, sulforhodamine B
[10] = DU-145 prostate, 48 h, sulforhodamine B

Row | IC50 [1, 4] [µg/mL] | GI50 (BXPC-3 (pancreas); [5]) [µg/mL] | GI50 (MCF-7 (breast); [6]) [µg/mL] | GI50 (SF-268 (CNS); [7]) [µg/mL] | GI50 (NCI-H460 (lung); [8]) [µg/mL] | GI50 (KM20L2 (colon); [9]) [µg/mL] | GI50 (DU-145 (prostate); [10]) [µg/mL] | Structure (SMILES) | IC50 [1, 3] [µg/mL] | GI50 (BXPC-3 (pancreas); BXPC-3, 48 h) [µg/mL] | GI50 (MCF-7 (breast); MCF7, 48 h) [µg/mL] | GI50 (SF-268 (CNS); SF-268, 48 h) [µg/mL] | GI50 (NCI-H460 (lung); NCI-H460, 48 h) [µg/mL] | GI50 (KM20L2 (colon); KM-20L2, 48 h) [µg/mL] | GI50 (DU-145 (prostate); DU-145, 48 h) [µg/mL] | melting point | Murine P388 Lymphocytic Leukemia Inhibitory Activity (ED50) [2] [µg/mL]
1 |  |  |  |  |  |  |  | COc1cc(C2C3=C(COC3=O)N(CCc3ccc(Cl)cc3)c3cc4c(cc32)OCO4)cc(OC)c1OC (centres unmarked) [Compound 26, 6,7-Methylenedioxy-4-[2-(4-chlorophenyl)-ethyl]-9-(3,4,5-trimethoxyphenyl)-4,9-dihydro-3H-furo[3,4-b]quinolin-1-one] | 2.6 (≈ 4.85 µM) | 0.54 (≈ 1.01 µM) | 0.34 (≈ 0.634 µM) | 0.35 (≈ 0.653 µM) | 0.3 (≈ 0.56 µM) | 0.37 (≈ 0.69 µM) | 0.31 (≈ 0.578 µM) | 170 to 173 °C | 
2 |  |  |  |  |  |  |  | COc1cc(C2C3=C(COC3=O)N(C3CCC3)c3cc4c(cc32)OCO4)cc(OC)c1OC (centres unmarked) [Compound 17, 6,7-Methylenedioxy-4-(cyclobutyl)-9-(3,4,5-trimethoxyphenyl)-4,9-dihydro-3H-furo[3,4-b]quinolin-1-one] | 0.24 (≈ 0.532 µM) | 0.04 (≈ 0.0886 µM) | 0.026 (≈ 0.0576 µM) | 0.026 (≈ 0.0576 µM) | 0.028 (≈ 0.062 µM) | 0.032 (≈ 0.0709 µM) | 0.047 (≈ 0.104 µM) | 224 to 226 °C | 
3 |  |  |  |  |  |  |  | COc1cc(C2C3=C(COC3=O)N(C3CCCC3)c3cc4c(cc32)OCO4)cc(OC)c1OC (centres unmarked) [Compound 18, 6,7-Methylenedioxy-4-(cyclopentyl)-9-(3,4,5-trimethoxyphenyl)-4,9-dihydro-3H-furo[3,4-b]quinolin-1-one] | 15.3 (≈ 32.9 µM) | 0.083 (≈ 0.178 µM) | 0.045 (≈ 0.0967 µM) | 0.062 (≈ 0.133 µM) | 0.16 (≈ 0.344 µM) | 0.12 (≈ 0.258 µM) | 0.27 (≈ 0.58 µM) | 221 to 223 °C | 
4 | 2 (≈ 4.53 µM) | 0.6 (≈ 1.36 µM) | 0.37 (≈ 0.838 µM) | 0.41 (≈ 0.929 µM) | 0.58 (≈ 1.31 µM) | 0.52 (≈ 1.18 µM) | 1.3 (≈ 2.94 µM) | COc1cc(C2C3=C(COC3=O)N(CCO)c3cc4c(cc32)OCO4)cc(OC)c1OC (centres unmarked) [Compound 13, 6,7-Methylenedioxy-4-(2-hydroxy-ethyl)-9-(3,4,5-trimethoxyphenyl)-4,9-dihydro-3H-furo[3,4-b]quinolin-1-one] |  |  |  |  |  |  |  |  | 
5 |  |  |  |  |  |  |  | COc1cc(C2C3=C(COC3=O)N(CCCn3ccnc3)c3cc4c(cc32)OCO4)cc(OC)c1OC (centres unmarked) [Compound 28, 6,7-Methylenedioxy-4-(3-imidazol-1-yl-propyl)-9-(3,4,5-trimethoxyphenyl)-4,9-dihydro-3H-furo[3,4-b]quinolin-1-one] | 2 (≈ 3.96 µM) | 2.9 (≈ 5.74 µM) | 0.64 (≈ 1.27 µM) | 2.5 (≈ 4.95 µM) | 3 (≈ 5.93 µM) | 2.2 (≈ 4.35 µM) | 2.1 (≈ 4.15 µM) | 206 °C (dec.) | 
6 |  |  |  |  |  |  |  | COc1cc(C2C3=C(COC3=O)N(CCc3ccc(F)cc3)c3cc4c(cc32)OCO4)cc(OC)c1OC (centres unmarked) [Compound 25, 6,7-Methylenedioxy-4-[2-(4-fluorophenyl)-ethyl]-9-(3,4,5-trimethoxyphenyl)-4,9-dihydro-3H-furo[3,4-b]quinolin-1-one] | 3.3 (≈ 6.35 µM) | 0.9 (≈ 1.73 µM) | 0.42 (≈ 0.808 µM) | 0.52 (≈ 1 µM) | 2.3 (≈ 4.43 µM) | 2.4 (≈ 4.62 µM) | 2.5 (≈ 4.81 µM) | 174 to 177 °C | 
7 |  |  |  |  |  |  |  | COc1cc(C2C3=C(COC3=O)N(C3CCCC3)c3cc4c(cc32)OCO4)cc(OC)c1O (centres unmarked) [Compound 30, 6,7-Methylenedioxy-4-(cyclopentyl)-9-(4-hydroxy-3,5-dimethoxy-phenyl)-4,9-dihydro-3H-furo[3,4-b]quinolin-1-one] | 30.3 (≈ 67.1 µM) | 0.53 (≈ 1.17 µM) | 0.32 (≈ 0.709 µM) | 0.39 (≈ 0.864 µM) | 0.33 (≈ 0.731 µM) | 2.1 (≈ 4.65 µM) | 0.41 (≈ 0.908 µM) |  | 
8 |  |  |  |  |  |  |  | COc1cc(C2C3=C(COC3=O)N(CCc3ccccn3)c3cc4c(cc32)OCO4)cc(OC)c1OC (centres unmarked) [Compound 24, 6,7-Methylenedioxy-4-(2-pyridin-2-yl-ethyl)-9-(3,4,5-trimethoxyphenyl)-4,9-dihydro-3H-furo[3,4-b]quinolin-1-one] | 2.5 (≈ 4.97 µM) | 0.38 (≈ 0.756 µM) | 0.32 (≈ 0.637 µM) | 0.33 (≈ 0.657 µM) | 0.34 (≈ 0.677 µM) | 0.29 (≈ 0.577 µM) | 0.42 (≈ 0.836 µM) | 239 to 241 °C | 
9 |  |  |  |  |  |  |  | COc1cc(C2C3=C(COC3=O)N(CCCO)c3cc4c(cc32)OCO4)cc(OC)c1OC (centres unmarked) [Compound 14, 6,7-Methylenedioxy-4-(3-hydroxy-propyl)-9-(3,4,5-trimethoxyphenyl)-4,9-dihydro-3H-furo[3,4-b]quinolin-1-one] | 0.28 (≈ 0.615 µM) | 0.48 (≈ 1.05 µM) | 0.34 (≈ 0.746 µM) | 0.36 (≈ 0.79 µM) | 0.33 (≈ 0.725 µM) | 0.38 (≈ 0.834 µM) | 0.49 (≈ 1.08 µM) | 269 to 272 °C (dec.) | 
10 |  |  |  |  |  |  |  | COc1cc(C2C3=C(COC3=O)N(C3CCCCC3)c3cc4c(cc32)OCO4)cc(OC)c1OC (centres unmarked) [Compound 19, 6,7-Methylenedioxy-4-(cyclohexyl)-9-(3,4,5-trimethoxyphenyl)-4,9-dihydro-3H-furo[3,4-b]quinolin-1-one] | 3.4 (≈ 7.09 µM) | 0.17 (≈ 0.355 µM) | 0.052 (≈ 0.108 µM) | 0.066 (≈ 0.138 µM) | 0.27 (≈ 0.563 µM) | 0.24 (≈ 0.5 µM) | 0.27 (≈ 0.563 µM) | 235 to 237 °C | 
11 |  |  |  |  |  |  |  | COc1cc(C2C3=C(COC3=O)N(CCN3CCOCC3)c3cc4c(cc32)OCO4)cc(OC)c1OC (centres unmarked) [Compound 22, 6,7-Methylenedioxy-4-(2-morpholin-4-yl-ethyl)-9-(3,4,5-trimethoxyphenyl)-4,9-dihydro-3H-furo[3,4-b]quinolin-1-one] | 2.6 (≈ 5.09 µM) | 3.5 (≈ 6.86 µM) | 0.89 (≈ 1.74 µM) | 2.6 (≈ 5.09 µM) | 3 (≈ 5.88 µM) | 2.5 (≈ 4.9 µM) | 2 (≈ 3.92 µM) | 186 to 189 °C | 
12 |  |  |  |  |  |  |  | COc1cc(C2C3=C(COC3=O)N(CCc3ccc([N+](=O)[O-])cc3)c3cc4c(cc32)OCO4)cc(OC)c1OC (centres unmarked) [Compound 27, 6,7-Methylenedioxy-4-[2-(4-nitrophenyl)-ethyl]-9-(3,4,5-trimethoxyphenyl)-4,9-dihydro-3H-furo[3,4-b]quinolin-1-one] | 34.8 (≈ 63.7 µM) | 0.39 (≈ 0.714 µM) | 0.08 (≈ 0.146 µM) | 0.2 (≈ 0.366 µM) | 0.3 (≈ 0.549 µM) | 0.26 (≈ 0.476 µM) | 0.3 (≈ 0.549 µM) | 188 to 190 °C | 
13 | 1.7 (≈ 3.34 µM) | 4.4 (≈ 8.65 µM) | > 10 | > 10 | > 10 | > 10 | > 10 | COc1cc(C2C3=C(COC3=O)N(CCN3CCCCC3)c3cc4c(cc32)OCO4)cc(OC)c1OC (centres unmarked) [Compound 21, 6,7-Methylenedioxy-4-(2-piperidin-1-yl-ethyl)-9-(3,4,5-trimethoxyphenyl)-4,9-dihydro-3H-furo[3,4-b]quinolin-1-one] |  |  |  |  |  |  |  | 170 °C (dec.) | 
14 |  |  |  |  |  |  |  | COc1cc(C2C3=C(COC3=O)Nc3cc4c(cc32)OCO4)cc(OC)c1O (centres unmarked) [Compound 29, 6,7-Methylenedioxy-9-(4-hydroxy-3,5-dimethoxy-phenyl)-4,9-dihydro-3H-furo[3,4-b]quinolin-1-one] | 0.028 (≈ 0.073 µM) | 0.028 (≈ 0.073 µM) | 0.025 (≈ 0.0652 µM) | 0.026 (≈ 0.0678 µM) | 0.027 (≈ 0.0704 µM) | 0.032 (≈ 0.0835 µM) | 0.033 (≈ 0.0861 µM) |  | 
15 |  |  |  |  |  |  |  | COc1cc(C2C3=C(COC3=O)N(Cc3ccc(F)cc3)c3cc4c(cc32)OCO4)cc(OC)c1OC (centres unmarked) [Compound 23, 6,7-Methylenedioxy-4-(4-fluoro-benzyl)-9-(3,4,5-trimethoxyphenyl)-4,9-dihydro-3H-furo[3,4-b]quinolin-1-one] | 1.9 (≈ 3.76 µM) | 0.046 (≈ 0.091 µM) | 0.037 (≈ 0.0732 µM) | 0.03 (≈ 0.0593 µM) | 0.031 (≈ 0.0613 µM) | 0.033 (≈ 0.0653 µM) | 0.047 (≈ 0.093 µM) | 246 to 247 °C | 
16 |  |  |  |  |  |  |  | COc1cc(C2C3=C(COC3=O)Nc3cc4c(cc32)OCO4)cc(OC)c1OC (centres unmarked) [Compound 15e, 6,7-Methylenedioxy-9-(3,4,5-trimethoxyphenyl)-4,9-dihydro-3H-furo[3,4-b]quinolin-1-one] |  |  |  |  |  |  |  | 273 to 275 °C | 0.0018
